Measured values reported in US11547663B2, “Unit aerosol doses for anticoagulation” (InCarda Therapeutics, Inc., priority 2015, dated 2023).

Key:
intrinsic pathway = assay: Activated clotting time (ACT) in dog blood after IV or IT anticoagulant; assay type: in vivo; settings: for ACT LA: Left Atrium
Protocol: To assess the efficacy of anticoagulants delivered via intratracheal (IT) inhalation, four different anticoagulants were tested in a dog study. PK as well as biomarkers of blood in the Left Atrium (LA) and Coronary Sinus (CS) were monitored. These locations were chosen as these are the sites whereby clot formation occurs that leads to Myocardial Infarction or results in stroke. These drugs and doses were selected to represent a wide spectrum of anticoagulant classes. One anticoagulant was tested in one dog on each arm of this study. Activated clotting time (ACT), measures the time in seconds needed for whole blood to clot upon exposure to an activator of an intrinsic pathway by the addition of such as factor XII activators. Measurements were performed in the blood collected from Left Atrium (LA) and in the Coronary sinus (CS)—the targets for stroke prevention and Myocardial Infarction (MI), respectively.

extrinsic system = assay: Prothrombin Time (PT) in dog blood after IV or IT anticoagulant; assay type: in vivo; settings: for PT CS / PTCS: Coronary Sinus; for PT LA: Left Atrium
Protocol: (§1) To assess the efficacy of anticoagulants delivered via intratracheal (IT) inhalation, four different anticoagulants were tested in a dog study.
(§2) PK as well as biomarkers of blood in the Left Atrium (LA) and Coronary Sinus (CS) were monitored. These locations were chosen as these are the sites whereby clot formation occurs that leads to Myocardial Infarction or results in stroke.
(§3) These drugs and doses were selected to represent a wide spectrum of anticoagulant classes. One anticoagulant was tested in one dog on each arm of this study.
(§4) Factor Xa inhibition; Prothrombin Time (PT): measures the integrity of the extrinsic system as well as factors common to both systems; and Activated Partial Thromboplastin Time (aPTT or PTT): measures the integrity of the intrinsic system and the common components and factor-Xa inhibition.
(§5) Measurements were performed in the blood collected from Left Atrium (LA) and in the Coronary sinus (CS)—the targets for stroke prevention and Myocardial Infarction (MI), respectively.

intrinsic system = assay: Activated Partial Thromboplastin Time (aPTT or PTT) in dog blood after IV or IT anticoagulant; assay type: in vivo; settings: for PTT CS: Coronary Sinus; for PTT LA: Left Atrium
Protocol: as §1, §2, §3, §4, §5

[1] = Inhaled anticoagulant in Myocardial Infarction patient (Example 4); assay type: in vivo, human
Text: Inhaled anticoagulant (e.g. Argatroban) will be administered (e.g., self-administered) to a patient suffering a Myocardial Infarction (MI) early to ensure that the patient is in an anti-coagulated state by the time the patient arrives at the hospital or point of care. This will facilitate further interventions, for which an anti-coagulated state is important.

[2] = Inhaled anticoagulant in patient undergoing heart valve replacement (Example 6); assay type: in vivo, human
Protocol: Inhaled anticoagulant (e.g. Argatroban) will be administered to a patient undergoing heart valve replacement to target the heart to reach an anti-coagulated state. In this example, a dose of 0.1 to 150 mg/kg can be sufficient to achieve an anti-coagulated state in 30 minutes.

[3] = Inhaled anticoagulant in heart transplant patient (Example 8); assay type: in vivo, human; settings: patient undergoing heart transplant
Protocol: Inhaled anticoagulant (e.g. Argatroban) will be administered to a patient undergoing heart transplant to target the heart to reach an anti-coagulated state. In this example, a dose of 0.1 to 150 mg/kg can be sufficient to achieve an anti-coagulated state in 30 minutes.

[4] = cited from earlier work
[5] = in vivo; cited from earlier work
[6] = IV Argatroban 3 mg, 0 min (baseline)
[7] = T Argatroban 5 mg, 0 min (baseline)

CC1CNc2c(cccc2S(=O)(=O)N[C@@H](CCCNC(=N)N)C(=O)N2CC[C@@H](C)C[C@@H]2C(=O)O)C1 (some centres unmarked) [Argatroban]
time in which ACT returns to base line (intrinsic pathway): 2 h | increase of ACT above baseline (intrinsic pathway; IT): ≤ 3.2 fold | time in which IT prolonged the ACT (intrinsic pathway; IT): 15 to 30 min | effect on ACT (intrinsic pathway; IT (inhaled)): increased and prolonged ACT | effect on ACT (intrinsic pathway; IV): prolonged | ACT LA (intrinsic pathway; [6]): 101 s | ACT LA (intrinsic pathway; IV Argatroban 3 mg, 1 min): 535 s | ACT LA (intrinsic pathway; IV Argatroban 3 mg, 3 min): 1000 s | ACT LA (intrinsic pathway; IV Argatroban 3 mg, 5 min): 489 s | ACT LA (intrinsic pathway; IV Argatroban 3 mg, 10 min): 326 s | ACT LA (intrinsic pathway; IV Argatroban 3 mg, 15 min): 264 s | ACT LA (intrinsic pathway; IV Argatroban 3 mg, 30 min): 185 s | ACT LA (intrinsic pathway; IV Argatroban 3 mg, 60 min): 140 s | ACT LA (intrinsic pathway; IV Argatroban 3 mg, 120 min): 107 s | ACT LA (intrinsic pathway; [7]): 84 s | ACT LA (intrinsic pathway; T Argatroban 5 mg, 1 min): 89 s | ACT LA (intrinsic pathway; T Argatroban 5 mg, 3 min): 73 s | ACT LA (intrinsic pathway; T Argatroban 5 mg, 5 min): 106 s | ACT LA (intrinsic pathway; T Argatroban 5 mg, 10 min): 135 s | ACT LA (intrinsic pathway; T Argatroban 5 mg, 15 min): 180 s | ACT LA (intrinsic pathway; T Argatroban 5 mg, 30 min): 259 s | ACT LA (intrinsic pathway; T Argatroban 5 mg, 60 min): 180 s | ACT LA (intrinsic pathway; T Argatroban 5 mg, 120 min): 129 s | effect on PT (extrinsic system; IT (inhaled)): very marginal spikes | effect on PT (extrinsic system; IV): prolonged | PT CS (extrinsic system; [6]): 6.5 s | PT CS (extrinsic system; IV Argatroban 3 mg, 3 min): 33.7 s | PT CS (extrinsic system; IV Argatroban 3 mg, 15 min): 20.2 s | PT CS (extrinsic system; IV Argatroban 3 mg, 60 min): 8.6 s | PT LA (extrinsic system; [6]): 9.1 s | PT LA (extrinsic system; IV Argatroban 3 mg, 1 min): 44.3 s | PT LA (extrinsic system; IV Argatroban 3 mg, 3 min): 36.3 s | PT LA (extrinsic system; IV Argatroban 3 mg, 5 min): 30.1 s | PT LA (extrinsic system; IV Argatroban 3 mg, 10 min): 22 s | PT LA (extrinsic system; IV Argatroban 3 mg, 15 min): 18 s | PT LA (extrinsic system; IV Argatroban 3 mg, 30 min): 11.5 s | PT LA (extrinsic system; IV Argatroban 3 mg, 60 min): 7.9 s | PT LA (extrinsic system; IV Argatroban 3 mg, 120 min): 6.7 s | PTCS (extrinsic system; [7]): 6.5 s | PTCS (extrinsic system; T Argatroban 5 mg, 3 min): 6.8 s | PTCS (extrinsic system; T Argatroban 5 mg, 15 min): 8.9 s | PTCS (extrinsic system; T Argatroban 5 mg, 60 min): 8.6 s | PT LA (extrinsic system; [7]): 6.3 s | PT LA (extrinsic system; T Argatroban 5 mg, 1 min): 6.7 s | PT LA (extrinsic system; T Argatroban 5 mg, 3 min): 7 s | PT LA (extrinsic system; T Argatroban 5 mg, 5 min): 7.2 s | PT LA (extrinsic system; T Argatroban 5 mg, 10 min): 8.6 s | PT LA (extrinsic system; T Argatroban 5 mg, 15 min): 10.4 s | PT LA (extrinsic system; T Argatroban 5 mg, 30 min): 12 s | PT LA (extrinsic system; T Argatroban 5 mg, 60 min): 8.1 s | PT LA (extrinsic system; T Argatroban 5 mg, 120 min): 7.3 s | effect on aPTT (intrinsic system; IT (inhaled)): very marginal spikes | effect on aPTT (intrinsic system; IV): prolonged | PTT CS (intrinsic system; [6]): 20.9 s | PTT CS (intrinsic system; IV Argatroban 3 mg, 3 min): 20 s | PTT CS (intrinsic system; IV Argatroban 3 mg, 15 min): 33.8 s | PTT CS (intrinsic system; IV Argatroban 3 mg, 60 min): 24.9 s | PTT LA (intrinsic system; [6]): 48.2 s | PTT LA (intrinsic system; IV Argatroban 3 mg, 1 min): 41.5 s | PTT LA (intrinsic system; IV Argatroban 3 mg, 3 min): 29.5 s | PTT LA (intrinsic system; IV Argatroban 3 mg, 5 min): 23.4 s | PTT LA (intrinsic system; IV Argatroban 3 mg, 10 min): 20.9 s | PTT LA (intrinsic system; IV Argatroban 3 mg, 15 min): 25.1 s | PTT LA (intrinsic system; IV Argatroban 3 mg, 30 min): 12.2 s | PTT LA (intrinsic system; IV Argatroban 3 mg, 60 min): 9.8 s | PTT LA (intrinsic system; IV Argatroban 3 mg, 120 min): 49.3 s | PTT CS (intrinsic system; [7]): 16.1 s | PTT CS (intrinsic system; T Argatroban 5 mg, 3 min): 18.4 s | PTT CS (intrinsic system; T Argatroban 5 mg, 15 min): 9.5 s | PTT CS (intrinsic system; T Argatroban 5 mg, 60 min): 40.3 s | PTT LA (intrinsic system; [7]): 13.3 s | PTT LA (intrinsic system; T Argatroban 5 mg, 1 min): 12.5 s | PTT LA (intrinsic system; T Argatroban 5 mg, 3 min): 17.7 s | PTT LA (intrinsic system; T Argatroban 5 mg, 5 min): 17.2 s | PTT LA (intrinsic system; T Argatroban 5 mg, 10 min): 20.1 s | PTT LA (intrinsic system; T Argatroban 5 mg, 15 min): 17.8 s | PTT LA (intrinsic system; T Argatroban 5 mg, 30 min): 13.2 s | PTT LA (intrinsic system; T Argatroban 5 mg, 60 min): 11.1 s | PTT LA (intrinsic system; T Argatroban 5 mg, 120 min): 10.4 s | time to achieve an anti-coagulated state ([1]; patient suffering Myocardial Infarction, inhaled 0.1 to 150 mg/kg): 30 min | return to a normal coagulation state after initiating the administration ([1]; patient suspected of Myocardial Infarction, inhaled): 3 h | return to a normal coagulation state after initiating the administration ([2]; inhaled): 3 h | time to achieve an anti-coagulated state ([2]; inhaled 0.1 to 150 mg/kg): 30 min | return to a normal coagulation state after initiating the administration ([3]; inhaled): 3 h | time to achieve an anti-coagulated state ([3]; inhaled 0.1 to 150 mg/kg): 30 min

CCCCS(=O)(=O)N[C@@H](Cc1ccc(OCCCCC2CCNCC2)cc1)C(=O)O [Tirofiban]
Log P [4]: 1.4 | aqueous solubility [4]: low

CO[C@H]1O[C@H](COS(=O)(=O)O)[C@@H](O[C@@H]2O[C@@H](C(=O)O)[C@@H](O[C@H]3O[C@H](COS(=O)(=O)O)[C@@H](O[C@@H]4O[C@H](C(=O)O)[C@@H](O[C@H]5O[C@H](COS(=O)(=O)O)[C@@H](OC)[C@H](OC)[C@H]5OC)[C@H](OC)[C@H]4OC)[C@H](OS(=O)(=O)O)[C@H]3OS(=O)(=O)O)[C@H](OC)[C@H]2OC)[C@H](OS(=O)(=O)O)[C@H]1OS(=O)(=O)O [idraparinux]
elimination half-life [5]: approximately 80 hours | elimination half-life relative to fondaparinux [5]: five to six times longer
